In this assay the target is Leucine-rich repeat serine/threonine-protein kinase 2 (Homo sapiens, UniProt Q5S007, G2019S). The assay can be described thus: Biochemical Assay: Materials: LRRK2 G2019S enzyme Substrate (LRRKtide) ATP TR-FRET dilution buffer pLRRKtide antibody 384-well assay plate DMSOEnzyme Reaction Conditions 50 mM Tris pH 7.5, 10 mM MgCl2, 1 mM EGTA, 0.01% Brij-35, 2 mM DTT 5 nM LRRK2 134 μM ATP 60 minute reaction time 23° C. reaction temperature 10 μL total reaction volumeDetection Reaction Conditions 1× TR-FRET dilution buffer 10 mM EDTA 2 nM antibody 23° C. reaction temperature 10 μL total reaction volumeCompounds were prepared by initially diluting to 1 mM with DMSO. 35 μL of reference compound solution, 35 μL of test compound solution, and 35 μL HPE were successively added to the source plate (384-well assay plate, Labcyte). The plates were centrifuged at 2500 rpm for 1 minute and sealed in foil. POD was used to perform a 3.162 fold serial dilution and 100 nL of reference compound solution, test compound solution, HPE and ZPE were transferred to assay plates. The assay plate was centrifuged at 2500 rpm for 1 minute, and sealed with foil.To perform the enzyme reaction, 5 μL of LRRKtide substrate and kinase mixture in assay buffer was added to all wells of the assay plate. The plate was centrifuged to concentrate the mixture at the bottom of the wells. The assay plate was incubated at 23° C. for 20 minutes. […]. (TR-FRET usually uses a lanthanide donor and a delayed reading to cut background.)
Leucine-rich repeat serine/threonine-protein kinase 2, sequence (Q5S007 whole entry G2019S): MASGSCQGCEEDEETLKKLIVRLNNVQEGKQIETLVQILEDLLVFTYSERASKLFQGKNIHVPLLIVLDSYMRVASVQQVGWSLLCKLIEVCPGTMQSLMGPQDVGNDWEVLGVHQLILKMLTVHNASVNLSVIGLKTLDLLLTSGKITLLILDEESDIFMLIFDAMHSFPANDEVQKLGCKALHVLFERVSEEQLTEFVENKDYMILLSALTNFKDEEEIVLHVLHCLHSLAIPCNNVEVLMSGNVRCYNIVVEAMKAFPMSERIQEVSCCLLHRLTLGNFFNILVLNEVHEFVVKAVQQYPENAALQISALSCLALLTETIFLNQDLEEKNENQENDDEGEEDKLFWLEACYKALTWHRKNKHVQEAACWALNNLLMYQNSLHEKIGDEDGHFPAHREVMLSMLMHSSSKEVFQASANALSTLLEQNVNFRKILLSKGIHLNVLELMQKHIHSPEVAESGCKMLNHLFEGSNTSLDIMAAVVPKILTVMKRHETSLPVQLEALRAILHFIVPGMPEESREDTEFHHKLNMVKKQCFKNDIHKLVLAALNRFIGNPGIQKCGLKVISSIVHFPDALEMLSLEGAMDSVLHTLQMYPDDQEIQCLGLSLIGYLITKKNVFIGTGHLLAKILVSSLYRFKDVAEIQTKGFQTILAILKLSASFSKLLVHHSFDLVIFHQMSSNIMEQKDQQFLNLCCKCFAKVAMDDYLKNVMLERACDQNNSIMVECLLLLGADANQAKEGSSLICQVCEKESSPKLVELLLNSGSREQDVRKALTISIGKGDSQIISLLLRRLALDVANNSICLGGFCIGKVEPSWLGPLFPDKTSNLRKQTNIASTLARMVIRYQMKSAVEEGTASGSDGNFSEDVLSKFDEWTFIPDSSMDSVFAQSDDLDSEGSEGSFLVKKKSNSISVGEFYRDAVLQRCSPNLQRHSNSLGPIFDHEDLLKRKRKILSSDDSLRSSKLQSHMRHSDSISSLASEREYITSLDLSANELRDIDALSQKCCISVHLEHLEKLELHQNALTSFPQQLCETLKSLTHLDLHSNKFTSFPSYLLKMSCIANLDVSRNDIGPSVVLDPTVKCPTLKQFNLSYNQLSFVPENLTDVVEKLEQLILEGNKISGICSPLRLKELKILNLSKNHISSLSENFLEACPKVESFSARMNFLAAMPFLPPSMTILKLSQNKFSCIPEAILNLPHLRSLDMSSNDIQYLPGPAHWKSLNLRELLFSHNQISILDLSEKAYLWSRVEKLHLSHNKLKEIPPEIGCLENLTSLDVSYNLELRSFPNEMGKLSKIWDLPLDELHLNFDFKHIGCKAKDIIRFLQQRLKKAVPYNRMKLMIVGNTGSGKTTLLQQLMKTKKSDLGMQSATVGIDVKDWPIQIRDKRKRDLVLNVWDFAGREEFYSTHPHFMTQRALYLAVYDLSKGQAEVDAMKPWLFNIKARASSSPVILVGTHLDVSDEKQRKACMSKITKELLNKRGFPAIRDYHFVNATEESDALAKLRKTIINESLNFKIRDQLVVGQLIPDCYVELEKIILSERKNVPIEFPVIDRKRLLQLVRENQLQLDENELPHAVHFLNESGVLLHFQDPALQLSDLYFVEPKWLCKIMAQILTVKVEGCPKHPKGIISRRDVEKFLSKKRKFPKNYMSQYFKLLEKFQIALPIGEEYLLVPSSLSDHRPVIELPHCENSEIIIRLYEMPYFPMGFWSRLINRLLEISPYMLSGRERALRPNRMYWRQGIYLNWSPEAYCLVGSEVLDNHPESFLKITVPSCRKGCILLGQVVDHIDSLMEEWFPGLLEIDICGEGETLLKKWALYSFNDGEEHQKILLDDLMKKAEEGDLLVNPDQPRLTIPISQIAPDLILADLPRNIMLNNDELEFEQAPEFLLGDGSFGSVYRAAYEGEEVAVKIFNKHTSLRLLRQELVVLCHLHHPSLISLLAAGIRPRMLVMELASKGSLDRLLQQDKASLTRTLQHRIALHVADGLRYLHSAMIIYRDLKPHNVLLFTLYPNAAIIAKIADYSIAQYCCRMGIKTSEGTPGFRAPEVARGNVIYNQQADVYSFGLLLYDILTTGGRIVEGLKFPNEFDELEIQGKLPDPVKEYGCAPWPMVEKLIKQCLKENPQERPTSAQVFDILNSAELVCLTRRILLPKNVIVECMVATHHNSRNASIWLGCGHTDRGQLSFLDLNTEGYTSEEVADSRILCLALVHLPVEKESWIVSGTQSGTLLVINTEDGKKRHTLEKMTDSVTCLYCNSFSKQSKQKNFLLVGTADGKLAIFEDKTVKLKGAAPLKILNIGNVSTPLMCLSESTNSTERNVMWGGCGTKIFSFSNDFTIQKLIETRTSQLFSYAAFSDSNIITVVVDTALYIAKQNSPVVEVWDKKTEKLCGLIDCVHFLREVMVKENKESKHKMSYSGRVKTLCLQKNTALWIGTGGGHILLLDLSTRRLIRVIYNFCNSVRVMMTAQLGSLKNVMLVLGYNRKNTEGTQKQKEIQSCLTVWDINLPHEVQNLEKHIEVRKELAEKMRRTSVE

This passage reports IC50 results from ChEMBL document CHEMBL5726904, “Compounds, compositions, and methods” (2018).

pIC50: −log10 of the molar value. Some results are limits rather than exact numbers.

The term pIC50 denotes the IC50 on a negative log10 scale, so that one unit is a factor of ten.

Consider `COc1nc(Nc2cn(C3C[C@@H]3C#N)nc2C2CC2)ncc1Br` (single isomer, unassigned), for which the pIC50 is > 7.52.

As for `COc1nc(Nc2cn(C(C)(C)C#N)nc2C)ncc1Br`, the pIC50 was > 7.52.
